According to paper PMC6151521, “Characterization of the Ornithine Hydroxylation Step in Albachelin Biosynthesis” (Molecules : A Journal of Synthetic Chemistry and Natural …, 2017):

Tested on: T1, albachelin monooxygenase (AMO)
T1 construct: expressed in E. coli (pVP56K) as 8xHis-MBP fusion, tag removed with TEV protease; MW 49 kDa
Assay: oxygen consumption (Oxygraph)
Format: biochemical, Amycolatopsis alba
Conditions: holo-AMO, 100 mM sodium phosphate pH 7.5
Text: oxygen consumption (Oxygraph) on albachelin monooxygenase (AMO)

Km (10 mM Orn)	Km (5 mM NADPH)	Structure (SMILES)
320 ± 100 µM	–	NC(=O)C1=CN([C@@H]2O[C@H](COP(=O)(O)OP(=O)(O)OC[C@H]3O[C@@H](n4cnc5c(N)ncnc54)[C@H](O)[C@@H]3O)[C@@H](O)[C@H]2O)C=CC1 [NADH]
1400 ± 160 µM	–	NC(=O)C1=CN([C@@H]2O[C@H](COP(=O)(O)OP(=O)(O)OC[C@H]3O[C@@H](n4cnc5c(N)ncnc54)[C@H](OP(=O)(O)O)[C@@H]3O)[C@@H](O)[C@H]2O)C=CC1 [NADPH]
–	305 ± 108 µM	NCCC[C@H](N)C(=O)O [Orn]
